Among the data in patent US20260042755A1, “GPR6 INVERSE AGONISTS” (MapLight Therapeutics, Inc., priority 2022, published 2026) are IC50 values, retold here.

One test has as its target T1, GPR6 (Homo sapiens, UniProt P46095).
T1 construct: expressed in transfected cells; host or cells: CHO cells
Put plainly: GPR6 antagonist functional cAMP assay (LANCE Ultra cAMP TR-FRET, CHO cells stably expressing GPR6). Format: cell-based. In outline:
(§1)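 Stable CHO-GPR6 or CHO-GPR3 cells (10,000/well) in Krebs-Ringer buffer with 0.1% BSA and 150 μM Ro 20-1724 were exposed to compounds for 45 min at 37° C (0.1% DMSO). cAMP read by LANCE Ultra TR-FRET; IC50 from 4-parameter fit normalized to DMSO and reference compounds.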

The target of another test is T2, GPR3 (Homo sapiens, UniProt P46089).
T2 construct: expressed in transfected cells; host or cells: CHO cells
Put plainly: GPR3 antagonist functional cAMP assay (LANCE Ultra cAMP TR-FRET, CHO cells stably expressing GPR3). Format: cell-based. The method in brief:
as §1

Setting [1] is: CHO cells stably expressing GPR6, cAMP assay (Example 24).
Where [2] appears, read: CHO cells stably expressing GPR3, cAMP assay (Example 24).
[3] abbreviates: CHO cells stably expressing GPR6, cAMP assay.
Setting [4] is: CHO cells stably expressing GPR3, cAMP assay.
Setting [5] is: procedure as described in Example 24.

T1 sequence (P46095 whole entry): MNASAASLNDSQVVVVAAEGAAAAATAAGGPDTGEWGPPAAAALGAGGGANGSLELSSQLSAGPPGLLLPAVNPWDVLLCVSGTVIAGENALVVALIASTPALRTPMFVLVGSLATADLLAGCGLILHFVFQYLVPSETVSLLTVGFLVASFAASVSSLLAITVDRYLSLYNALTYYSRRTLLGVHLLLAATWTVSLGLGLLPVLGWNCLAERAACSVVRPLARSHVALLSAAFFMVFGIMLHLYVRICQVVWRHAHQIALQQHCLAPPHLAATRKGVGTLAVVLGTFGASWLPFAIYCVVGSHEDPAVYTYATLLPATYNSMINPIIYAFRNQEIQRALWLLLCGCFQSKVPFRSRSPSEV
T2 sequence (P46089 whole entry, species assumed): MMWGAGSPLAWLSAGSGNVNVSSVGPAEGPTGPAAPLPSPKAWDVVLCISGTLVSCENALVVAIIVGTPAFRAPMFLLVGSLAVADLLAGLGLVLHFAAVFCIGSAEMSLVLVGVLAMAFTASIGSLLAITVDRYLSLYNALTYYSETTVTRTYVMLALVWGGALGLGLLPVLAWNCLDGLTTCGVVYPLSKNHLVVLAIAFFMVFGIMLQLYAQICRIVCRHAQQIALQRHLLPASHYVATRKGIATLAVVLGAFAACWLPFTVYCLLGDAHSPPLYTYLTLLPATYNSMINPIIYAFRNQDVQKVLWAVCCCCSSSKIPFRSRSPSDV

What is called IC50 is the concentration that inhibits the measured activity by half. A lower IC50 goes with inhibition by little substance. As to `CC(=O)N1CCc2nc(N3CCN(Cc4ccc(F)cc4F)C[C@H]3C)c(-c3cnn(C)c3)nc2C1` (single isomer, unassigned) [Compound 231], the IC50 against GPR6 (setting [1]) and on GPR3 (setting [2]) was 1 to 30 µM in each case.
Regarding `CC(=O)N1CCc2nc(N3CC=CC3)c(-c3cnn(C)c3)nc2C1` [Compound 451, 1-[2-(2,5-dihydro-1H-pyrrol-1-yl)-3-(1-methyl-1H-pyrazol-4-yl)-5H,6H,7H,8H-pyrido[3,4-b]pyrazin-6-yl]ethan-1-one], the IC50 is at least 30 µM against GPR6 (setting [1]) and 1 to 30 µM against GPR3 (setting [2]).
In the same order, the values of `Fc1ccc(CN2CCN(c3nc4cnccc4nc3-c3ncc[nH]3)CC2)c(Cl)c1` [Compound 65, 1-[(2-chloro-4-fluorophenyl)methyl]-4-[2-(1H-imidazol-2-yl)pyrido[3,4-b]pyrazin-3-yl]piperazine] are 1 to 30 µM and 0.1 to 1 µM.
Turning to `CC(C)(O)C(O)c1cc2nc(-c3cnn(C4CC4)c3)c(N3CCN(Cc4ccc(F)cc4F)CC3)nc2cn1` (single isomer, unassigned) [Compound 601], the IC50 is 0.1 to 1 µM at GPR6 (setting [3]) and 1 to 30 µM on GPR3 (setting [4]).
In the case of `CC(C)(O)Cc1cc2nc(-c3cnn(C4CC4)c3)c(N3CCC(Oc4ccc(F)cc4F)CC3)nc2cn1` [Compound 704, 1-{2-(1-cyclopropyl-4-pyrazolyl)-3-[4-(2,4-difluorophenoxy)-1-piperidyl]-1,4,6-triaza-7-naphthyl}-2-methyl-2-propanol], the IC50 was in the range of 0.1 to 1 µM at GPR6 (procedure of Example 24) and 1 to 30 µM against GPR3 (procedure of Example 24).
With `CC(=O)N1CCc2nc(N3CCC(Oc4ccc(F)cc4F)CC3)c(-c3cncc(Cl)n3)nc2C1` [Compound 243], the IC50 at GPR6 (setting [1]) and against GPR3 (setting [2]) was 1 to 30 µM in each case.
In the case of `Cn1cc(-c2nc3cncc(C#N)c3nc2N2CCC(Oc3ccc(F)cc3F)CC2)cn1` [Compound 436, 2-[4-(2,4-difluorophenoxy)piperidin-1-yl]-3-(1-methyl-1H-pyrazol-4-yl)pyrido[3,4-b]pyrazine-8-carbonitrile], the IC50 against GPR6 (setting [1]) and on GPR3 (setting [2]) was 1 to 30 µM in each case.
As for `CC(C)(O)[C@](C)(O)c1cc2nc(-c3cnn(C4CC4)c3)c(N3CCN(Cc4ccc(F)cc4F)CC3)nc2cn1` [Compound 683, (R)-2-[2-(1-cyclopropyl-4-pyrazolyl)-3-{4-[(2,4-difluorophenyl)methyl]-1-piperazinyl}-1,4,6-triaza-7-naphthyl]-3-methyl-2,3-butanediol], the IC50 on GPR6 (procedure of Example 24) lay in the range of 0.1 to 1 µM; at GPR3 (procedure of Example 24) it was 1 to 30 µM.
In the case of `CN(C)C(=O)N1CCc2nc(N3CCC(Oc4ccc(F)cc4F)CC3)c(-c3cnn(C4CCCCO4)c3)nc2C1` (stereo not drawn) [Compound 182, 2-[4-(2,4-difluorophenoxy)piperidin-1-yl]-N,N-dimethyl-3-[1-(oxan-2-yl)-1H-pyrazol-4-yl]-5H,6H,7H,8H-pyrido[3,4-b]pyrazine-6-carboxamide], the IC50 against GPR6 (setting [1]) fell in the range of 0.1 to 1 µM; at GPR3 (setting [2]), 1 to 30 µM.
Take `COc1ccc(OC2CCN(c3nc4c(nc3-c3cnn(C)c3)CN(C(C)=O)CC4)CC2)cc1F` [Compound 502, 1-{2-[4-(3-fluoro-4-methoxyphenoxy)-1-piperidyl]-3-(1-methyl-4-pyrazolyl)-5,6,7,8-tetrahydro-1,4,6-triaza-6-naphthyl}-1-ethanone]: the IC50 is 0.1 to 1 µM on GPR6 (setting [3]) and 1 to 30 µM against GPR3 (setting [4]).
As for `CC(C)(O)Cc1cc2nc(-c3cnn(C(F)F)c3)c(N3CCC(Oc4ccc(F)cc4F)CC3)nc2cn1` [Compound 714, 1-{2-[1-(difluoromethyl)-4-pyrazolyl]-3-[4-(2,4-difluorophenoxy)-1-piperidyl]-1,4,6-triaza-7-naphthyl}-2-methyl-2-propanol], the figures for the IC50 on GPR6 (procedure of Example 24) and against GPR3 (procedure of Example 24) were 0.1 to 1 µM and 1 to 30 µM, respectively.
`CC(=O)N1CCc2nc(N3CCC(Oc4ccc(F)cc4F)CC3)c(C3=CC(O)CCC3)nc2C1` (stereo not drawn) [Compound 234, 1-{2-[4-(2,4-difluorophenoxy)piperidin-1-yl]-3-(3-hydroxycyclohex-1-en-1-yl)-5H,6H,7H,8H-pyrido[3,4-b]pyrazin-6-yl}ethan-1-one]: the IC50 against GPR6 (setting [1]) and against GPR3 (setting [2]) was 1 to 30 µM each time.
`CN1CCc2nc(N3CCC(Oc4ccc(F)cc4F)CC3)c(-c3cn[nH]c3)nc2C1` [Compound 139, 4-(2,4-difluorophenoxy)-1-[6-methyl-3-(1H-pyrazol-4-yl)-5H,6H,7H,8H-pyrido[3,4-b]pyrazin-2-yl]piperidine]: the concentration for half-maximal inhibition (IC50) against GPR6 (setting [1]) and at GPR3 (setting [2]) was 1 to 30 µM each time.
Regarding `COC[C@@H]1CN(Cc2ccc(F)cc2F)CCN1c1nc2c(nc1-c1cnn(C)c1)CN(C(C)=O)CC2` (single isomer, unassigned) [Compound 244], the IC50 against GPR6 (setting [1]) and against GPR3 (setting [2]) was 1 to 30 µM each time.
Consider `COc1ccc(C(=O)N2CCN(c3nc4c(nc3-c3cnn(C)c3)CN(C(C)=O)CC4)CC2)nc1` [Compound 284, 1-{2-[4-(5-methoxypyridine-2-carbonyl)piperazin-1-yl]-3-(1-methyl-1H-pyrazol-4-yl)-5H,6H,7H,8H-pyrido[3,4-b]pyrazin-6-yl}ethan-1-one], for which the IC50 at GPR6 (procedure of Example 24) and on GPR3 (procedure of Example 24) was 1 to 30 µM in each case.
Turning to `CC(C)S(=O)(=O)N1CCc2nc(N3CCC(Oc4ccc(F)cc4F)CC3)c(-c3cnn(C4CCCCO4)c3)nc2C1` (stereo not drawn) [Compound 176, 4-(2,4-difluorophenoxy)-1-{3-[1-(oxan-2-yl)-1H-pyrazol-4-yl]-6-(propane-2-sulfonyl)-5H,6H,7H,8H-pyrido[3,4-b]pyrazin-2-yl}piperidine], the IC50 against GPR6 (setting [1]) lay in the range of 0.1 to 1 µM; against GPR3 (setting [2]), 1 to 30 µM.
In the same order, the values of `CC(=O)N1CCc2nc(N3CCN(C(=O)c4ccc(F)cc4Cl)CC3)c(-c3cnn(C)c3)nc2C1` [Compound 253, 1-{2-[4-(2-chloro-4-fluorobenzoyl)piperazin-1-yl]-3-(1-methyl-1H-pyrazol-4-yl)-5H,6H,7H,8H-pyrido[3,4-b]pyrazin-6-yl}ethan-1-one] are 1 to 30 µM and 1 to 30 µM.
Consider `CC(=O)N1CCc2nc(N3CCC(Oc4ccc(F)cc4F)CC3)c(-c3cccc(C#N)n3)nc2C1` [Compound 2, 6-{6-acetyl-2-[4-(2,4-difluorophenoxy)piperidin-1-yl]-5H,6H,7H,8H-pyrido[3,4-b]pyrazin-3-yl}pyridine-2-carbonitrile], for which the values for the IC50 at GPR6 (setting [5]) and at GPR3 (setting [5]) were 0.1 to 1 µM and 1 to 30 µM, respectively.
In the case of `CC(=O)N1CCc2nc(N3CCC(Oc4ccc(F)cc4F)CC3)c(-c3cccc(CO)n3)nc2C1` [Compound 133, 1-(2-(4-(2,4-difluorophenoxy)piperidin-1-yl)-3-(6-(hydroxymethyl)pyridin-2-yl)-7,8-dihydropyrido[3,4-b]pyrazin-6(5H)-yl)ethan-1-one], the IC50 against GPR6 (setting [1]) and against GPR3 (setting [2]) was 1 to 30 µM throughout.
Consider `CC(=O)N1CCc2nc(N3CCC(Oc4ccc(F)cc4F)CC3)c(-c3cccc(N)n3)nc2C1` [Compound 168, 1-[3-(6-aminopyridin-2-yl)-2-[4-(2,4-difluorophenoxy)piperidin-1-yl]-5H,6H,7H,8H-pyrido[3,4-b]pyrazin-6-yl]ethan-1-one], for which the results for the IC50 against GPR6 (setting [1]) and against GPR3 (setting [2]) were below 0.1 µM and 0.1 to 1 µM, respectively.
For `Cn1cc(-c2nc3cnc(C(C)(O)C(C)(C)O)cc3nc2N2CCC(Oc3ccc(F)cc3F)CC2)cn1` (stereo not drawn) [Compound 434, 2-(2-(4-(2,4-difluorophenoxy)piperidin-1-yl)-3-(1-methyl-1H-pyrazol-4-yl)pyrido[3,4-b]pyrazin-7-yl)-3-methylbutane-2,3-diol], in that order: 0.1 to 1 µM and 1 to 30 µM.
